Reference: US20250051347A1, “BIFUNCTIONAL CHIMERIC HETEROCYCLIC COMPOUND AND USE THEREOF AS ANDROGEN RECEPTOR DEGRADER” (Hinova Pharmaceuticals, Inc., priority 2021, published 2025)
Read-outs that look alike come from different tables or passages of the source.

Experiments:
[1] = biological target: T1, androgen receptor (AR) splicing variant AR-v7 (Homo sapiens, UniProt P10275); experiment: Degradation activity on androgen receptor splicing variant AR-v7 in 22RV1 cells (ELISA); format: cell-based; settings: AR-v7 degradation in 22RV1 cells, 48 h, class symbols
T1 construct: The degradation activity of compounds on AR-v7 in 22RV1 cells; host or cells: 22RV1 cells
T1 sequence (P10275 1-644 isoform P10275-3): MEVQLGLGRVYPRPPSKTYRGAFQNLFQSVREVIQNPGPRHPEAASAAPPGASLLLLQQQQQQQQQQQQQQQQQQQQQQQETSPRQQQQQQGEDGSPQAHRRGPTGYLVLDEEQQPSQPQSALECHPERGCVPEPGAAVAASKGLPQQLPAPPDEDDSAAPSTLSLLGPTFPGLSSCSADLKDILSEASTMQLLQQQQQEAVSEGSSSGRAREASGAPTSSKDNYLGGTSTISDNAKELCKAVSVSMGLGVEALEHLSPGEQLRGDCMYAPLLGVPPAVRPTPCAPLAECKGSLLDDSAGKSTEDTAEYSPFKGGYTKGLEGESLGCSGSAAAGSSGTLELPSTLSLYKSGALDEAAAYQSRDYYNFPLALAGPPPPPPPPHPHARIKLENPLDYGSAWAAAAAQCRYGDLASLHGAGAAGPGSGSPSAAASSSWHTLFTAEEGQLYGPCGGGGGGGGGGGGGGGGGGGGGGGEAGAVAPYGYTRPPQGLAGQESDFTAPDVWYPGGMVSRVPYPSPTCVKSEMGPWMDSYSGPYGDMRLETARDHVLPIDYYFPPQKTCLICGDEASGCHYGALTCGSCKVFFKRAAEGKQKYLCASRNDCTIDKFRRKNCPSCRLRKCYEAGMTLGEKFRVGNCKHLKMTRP

[2] = Homo sapiens, 22Rv1, 144 h, read-out: 22RV1 IC50 (nM), 22RV1 cells, 6 days culture, CCK-8, OD 450 nm
[3] = read-out: 22RV1 IC50, 22RV1 cells, 6 days culture, CCK-8, OD 450 nm

| Structure (SMILES) | DC50 [1] [µM] | IC50 (22RV1 cells; [2]) [nM] | IC50 (22RV1 cells; [3]) [nM] |
| --- | --- | --- | --- |
| CC(C)(c1ccc(OCCCNc2ccc3c(c2)C(=O)N(C2CCC(=O)NC2=O)C3=O)cc1)c1ccc(OCc2ccnc(C(N)=O)n2)cc1 (stereo not drawn) [Example 182, 4-((4-(2-(4-(3-((2-(2,6-dioxopiperidin-3-yl)-1,3-dioxoisoindolin-5-yl)amino)propoxy)phenyl)propan-2-yl)phenoxy)methyl)pyrimidin-2-carbonylamine] | 0.011 to 0.1 | 50 | – |
| CC(C)(c1ccc(OCCCNc2ccc3c(c2)C(=O)N(C2CCC(=O)NC2=O)C3=O)cc1)c1ccc(OCc2nc(CO)co2)cc1 (stereo not drawn) [Example 185, 2-(2,6-dioxopiperidin-3-yl)-5-((3-(4-(2-(4-((4-(hydroxylmethyl)oxazol-2-yl)methoxy)phenyl)propan-2-yl)phenoxy)propyl)amino)isoindolin-1,3-dione] | 0.011 to 0.1 | 56 | – |
| CNC(=O)c1nccc(COc2ccc(C(C)(C)c3ccc(O[C@H]4C[C@H](Nc5ccc6c(c5)C(=O)N(C5CCC(=O)NC5=O)C6=O)C4)cc3)cc2)n1 (stereo partly drawn) [Example 186, 4-((4-(2-(4-((1r,3r)-3-((2-(2,6-dioxopiperidin-3-yl)-1,3-dioxoisoindolin-5-yl)amino)cyclobutyloxy)phenyl)propan-2-yl)phenoxy)methyl)-N-methylpyrimidin-2-carbonylamine] | 0.011 to 0.1 | 32 | – |
| CC(C)(c1ccc(O[C@H]2C[C@@H](Nc3ccc4c(c3)C(=O)N(C3CCC(=O)NC3=O)C4=O)C2)cc1)c1ccc(N2CCc3ncnc(N4CC5(COC5)C4)c3C2)cc1 (stereo partly drawn) [Example 194] | 0.011 to 0.1 | 33 | – |
| Cc1nccc(Oc2ccc(C(C)(C)c3ccc(O[C@H]4C[C@H](Nc5ccc6c(c5)C(=O)N(C5CCC(=O)NC5=O)C6=O)C4)cc3)cc2)n1 (stereo partly drawn) [Example 197] | < 0.01 | 5 | – |
| CC(C)(c1ccc(OCc2nc(N3CC4(COC4)C3)ncc2F)cc1)c1ccc(O[C@H]2C[C@H](Nc3ccc4c(c3)C(=O)N(C3CCC(=O)NC3=O)C4=O)C2)cc1 (stereo partly drawn) [Example 200] | < 0.01 | 12 | – |
| Cc1cnc(N2CC3(COC3)C2)nc1COc1ccc(C(C)(C)c2ccc(O[C@H]3C[C@H](Nc4ccc5c(c4)C(=O)N(C4CCC(=O)NC4=O)C5=O)C3)cc2)cc1 (stereo partly drawn) [Example 204] | < 0.01 | 6 | – |
| CC(C)(c1ccc(Oc2ccc(-n3ccnn3)nc2)cc1)c1ccc(O[C@H]2C[C@H](Nc3ccc4c(c3)C(=O)N(C3CCC(=O)NC3=O)C4=O)C2)cc1 (stereo partly drawn) [Example 207, 5-((1r,3r)-3-(4-(2-(4-((6-(1H-1,2,3-triazol-1-yl)pyridin-3-yl)oxy)phenyl)propan-2-ylphenoxy)cyclobutyl)amino)-2-(2,6-dioxopiperidin-3-yl) isoindolin-1,3-dione] | < 0.01 | 16 | – |
| CC(C)(c1ccc(Oc2cnnc(-n3nccn3)c2)cc1)c1ccc(O[C@H]2C[C@H](Nc3ccc4c(c3)C(=O)N(C3CCC(=O)NC3=O)C4=O)C2)cc1 (stereo partly drawn) [Example 217] | < 0.01 | 15 | – |
| Cc1nnc(-c2cnnc(Oc3ccc(C(C)(C)c4ccc(O[C@H]5C[C@H](Nc6ccc7c(c6)C(=O)N(C6CCC(=O)NC6=O)C7=O)C5)cc4)cc3)c2)o1 (stereo partly drawn) [Example 218] | < 0.01 | 6 | – |
| CC(O)c1ncc(Oc2ccc(C(C)c3ccc(O[C@H]4C[C@H](Nc5ccc6c(c5)C(=O)N(C5CCC(=O)NC5=O)C6=O)C4)cn3)cc2)cn1 (stereo partly drawn) [Example 219] | < 0.01 | 6 | – |
| CC(=O)c1ncc(Oc2ccc(C(C)c3ccc(O[C@H]4C[C@H](Nc5ccc6c(c5)C(=O)N(C5CCC(=O)NC5=O)C6=O)C4)cn3)cc2)cn1 (stereo partly drawn) [Example 220] | < 0.01 | 8 | – |
| Cc1nc(-c2ncc(Oc3ccc(C(C)(C)c4ccc(OC5CC(Nc6ccc7c(c6)C(=O)N(C6CCC(=O)NC6=O)C7=O)C5)cn4)cc3)cn2)no1 (stereo not drawn) [Example 221, 2-(2,6-dioxopiperidin-3-yl)-5-((1r,3r)-3-((6-(2-(4-((2-(5-methyl-1,2,4-oxadiazol-3-yl)pyrimidin-5-yl)oxy)phenyl)propan-2-yl)pyridin-3-yl)oxy)cyclobutyl)amino)isoindolin-1,3-dione] | < 0.01 | – | 6 |
| CC(=O)c1ncc(Oc2ccc(C(C)(C)c3ccc(OC4CC(Nc5ccc6c(c5)C(=O)N(C5CCC(=O)NC5=O)C6=O)C4)cn3)cc2)cn1 (stereo not drawn) [Example 222, 5-((1r,3r)-3-((6-(2-(4-((2-acetylpyrimidin-5-yl)oxy)phenyl)propan-2-yl)pyridin-3-yl)oxy)cyclobutyl)amino)-2-(2,6-dioxopyridin-3-yl)isoindolin-1,3-dione] | < 0.01 | – | 3 |
| Cc1nc(COc2ccc(C(C)(C)c3ccc(OCCCNc4ccc5c(c4)C(=O)N(C4CCC(=O)NC4=O)C5=O)cc3)cc2)cs1 (stereo not drawn) [Example 225, 2-(2,6-dioxopiperidin-3-yl)-5-((3-(4-(2-(4-((2-methylthiazol-4-yl)methoxy)phenyl)propan-2-yl)phenoxy)propyl)amino)isoindolin-1,3-dione] | 0.011 to 0.1 | 60 | – |
| CC(C)(c1ccc(OCCCNc2ccc3c(c2)C(=O)N(C2CCC(=O)NC2=O)C3=O)cc1)c1ccc(OCc2ccnc(-n3ccnn3)n2)cc1 (stereo not drawn) [Example 228, 5-((3-(4-(2-(4-((2-(1H-1,2,3-triazol-1-yl)pyrimidin-4-yl)methoxy)phenyl)propan-2-yl)phenoxy)propyl)amino)-2-(2,6-dioxopiperidin-3-yl)isoindolin-1,3-dione] | 0.011 to 0.1 | 22 | – |
| CC(C)(c1ccc(OCCCNc2ccc3c(c2)C(=O)N(C2CCC(=O)NC2=O)C3=O)cc1)c1ccc(OCc2ccnc(-n3nccn3)n2)cc1 (stereo not drawn) [Example 229, 5-((3-(4-(2-(4-((2-(2H-1,2,3-triazol-2-yl)pyrimidin-4-yl)methoxy)phenyl)propan-2-yl)phenoxy)propyl)amino)-2-(2,6-dioxopiperidin-3-yl)isoindolin-1,3-dione] | 0.011 to 0.1 | 31 | – |
| CC(C)(c1ccc(OCc2ccnc(-n3ccnn3)n2)cc1)c1ccc(O[C@H]2C[C@H](Nc3ccc4c(c3)C(=O)N(C3CCC(=O)NC3=O)C4=O)C2)cc1 (stereo partly drawn) [Example 230] | < 0.01 | 9 | – |
| CC(C)(c1ccc(OCc2ccnc(N3CC[C@H](O)C3)n2)cc1)c1ccc(O[C@H]2C[C@@H](Nc3ccc4c(c3)C(=O)N(C3CCC(=O)NC3=O)C4=O)C2)cc1 (stereo partly drawn) [Example 233] | < 0.01 | 16 | – |
| CC(C)(c1ccc(OCc2ccnc(NC3COC3)n2)cc1)c1ccc(O[C@H]2C[C@@H](Nc3ccc4c(c3)C(=O)N(C3CCC(=O)NC3=O)C4=O)C2)cc1 (stereo partly drawn) [Example 237] | < 0.01 | 9 | – |
| CC(C)(c1ccc(Oc2ccnc(N3CC4(COC4)C3)n2)cc1)c1ccc(O[C@H]2C[C@H](Nc3ccc4c(c3)C(=O)N(C3CCC(=O)NC3=O)C4=O)C2)cc1 (stereo partly drawn) [Example 244, 5-((1r,3r)-3-(4-(2-(4-(4-((2-(2-oxa-6-azaspiro[3.3]heptane-6-yl)pyrimidin-4-yl)oxy)phenyl)propan-2-yl)phenoxy)cyclobutyl)amino)-2-(2,6-dioxopiperidin-3-yl)isoindolin-1,3-dione] | < 0.01 | 6 | – |
| CC(=O)c1nccc(Oc2ccc(C(C)(C)c3ccc(O[C@H]4C[C@H](Nc5ccc6c(c5)C(=O)N(C5CCC(=O)NC5=O)C6=O)C4)cc3)cc2)n1 (stereo partly drawn) [Example 246] | < 0.01 | 5 | – |
| CC(c1nccc(COc2ccc(C(C)(C)c3ccc(O[C@H]4C[C@H](Nc5ccc6c(c5)C(=O)N(C5CCC(=O)NC5=O)C6=O)C4)cc3)cc2)n1)N1CCC1 (stereo partly drawn) [Example 249] | < 0.01 | 6 | – |
| CC(C)(c1ccc(Oc2cccc(-n3nccn3)n2)cc1)c1ccc(O[C@H]2C[C@H](Nc3ccc4c(c3)C(=O)N(C3CCC(=O)NC3=O)C4=O)C2)cc1 (stereo partly drawn) [Example 256, 5-((1r,3r)-3-(4-(2-(4-((6-(2H-1,2,3-triazol-2-yl)pyridin-2-yl)oxy)phenyl)propan-2-ylphenoxy)cyclobutyl)amino)-2-(2,6-dioxopiperidin-3-yl)isoindolin-1,3-dione] | < 0.01 | 2 | – |
| CC(C)(c1ccc(Oc2ccc(N3CC(N4CC(F)C4)C3)nn2)cc1)c1ccc(O[C@H]2C[C@H](Nc3ccc4c(c3)C(=O)N(C3CCC(=O)NC3=O)C4=O)C2)cc1 (stereo partly drawn) [Example 258] | 0.101 to 1 | 8 | – |
| CC(C)(c1ccc(Oc2cnc(C(N)=O)nc2)cc1)c1ccc(O[C@H]2C[C@H](Nc3ccc4c(c3)C(=O)N(C3CCC(=O)NC3=O)C4=O)C2)cc1 (stereo partly drawn) [Example 265, 5-(4-(2-(4-((1r,3r)-3-((2-(2,6-dioxopiperidin-3-yl)-1,3-dioxoisoindolin-5-yl)amino)cyclobutyloxy)phenyl)propan-2-yl)phenoxy)pyrimidin-2-carbonylamine] | < 0.01 | 4 | – |
| Cn1cc(-c2nccc(COc3ccc(C(C)(C)c4ccc(O[C@H]5C[C@@H](Nc6ccc7c(c6)C(=O)N(C6CCC(=O)NC6=O)C7=O)C5)cc4)cc3)n2)cn1 (stereo partly drawn) [Example 270] | < 0.01 | 10 | – |
